Assay results reported in patent US10052320B2, “Substituted quinoxalines as FGFR kinase inhibitors” (ASTEX THERAPEUTICS LIMITED, priority 2011, dated 2018).
Where two headings read alike, the source gives them in different places.

How the values were obtained:
[1] = target: FGFR1 (h) (Homo sapiens, UniProt P11362); test: FGFR1 (enzymatic assay), TR-FRET; assay type: biochemical; settings: read-out: FGFR 1 pIC50 (converted)
Description: In a final reaction volume of 30 μL, FGFR1 (h) (25 ng/ml) was incubated with 50 mM HEPES pH 7.5, 6 mM MnCl2, 1 mM DTT, 0.1 mM Na3VO4, 0.01% Triton-X-100, 500 nM Btn-Flt3 and 5 μM ATP in the presence of compound (1% DMSO final). […] Time-Resolved Fluorescence Resonance Energy Transfer (TR-FRET) signal (ex340 nm. Em 620 nm, em 655 nm) was measured afterwards and results are expressed in RFU (Relative Fluorescence Units).

[2] = target: Ba/F3-FGFR1-transfected cells (Homo sapiens, UniProt P11362); test: Ba/F3-FGFR1 (minus IL3) cellular proliferation assay, Alamar Blue; assay type: cell-based; settings: for BAF3-FGFR 1 (MIN IL3) 96 well pIC50: minus IL3, 96 well; for BAF3-FGFR 1 (MIN IL3) 384 well pIC50: minus IL3, 384 well
Summary of the method: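 Compound-treated FGFR1-transfected Ba/F3 cells were cultured for 24 h (37 °C, 5% CO2) in RPMI-1640 with 10% FBS, with 10 ng/ml murine IL3 added for the counterscreen only. Viability was read as resazurin fluorescence (540/590 nm) after a further 4 h incubation with Alamar Blue.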

[3] = tested on: Ba/F3-Flt3-transfected cells in the presence of 10 ng/ml murine IL3; test: Ba/F3-Flt3 (plus IL3) cellular proliferation counterscreen, Alamar Blue; assay type: cell-based; settings: Mus musculus, read-out: BAF3-FLT3 (PLUS IL3) 96 well pIC50 (converted)
[4] = target: Ba/F3-FGFR3-transfected cells (Homo sapiens, UniProt P22607); test: Ba/F3-FGFR3 (minus IL3) cellular proliferation assay, Alamar Blue; assay type: cell-based; settings: for BAF3-FGFR 3 (MIN IL3) 96 well pIC50: minus IL3, 96 well; for BAF3-FGFR 3 (MIN IL3) 384 well pIC50: minus IL3, 384 well
Summary of the method: (§1)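 Counterscreen adds 10 ng/ml murine IL3, otherwise matching the IL3-free run. In both, FGFR3-transfected Ba/F3 cells (20000 or 10000 per well) incubate with compound for 24 h at 37° C. and 5% CO2; viability is read as resazurin fluorescence (540/590 nm) after 4 h with Alamar Blue.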

[5] = target: Ba/F3-FGFR4-transfected cells (Homo sapiens, UniProt P22455); test: Ba/F3-FGFR4 cellular proliferation assay, Alamar Blue; assay type: cell-based
Summary of the method: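 Alamar Blue fluorescence (540/590 nm, 4 h development) measured growth of FGFR4-transfected Ba/F3 cells after 24 h compound treatment at 37° C. Cells were seeded at 20000/well in RPMI-1640, 10% FBS.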

[6] = tested on: Ba/F3-FGFR3-transfected cells in the presence of 10 ng/ml murine IL3; test: Ba/F3-FGFR3 (plus IL3) cellular proliferation counterscreen, Alamar Blue; assay type: cell-based; settings: Mus musculus; plus 10 ng/ml murine IL3; 384 well; read-out: BAF3-FGFR 3 (PLUS IL3) 384 well pIC50 (converted)
Summary of the method: as §1

Sequence of FGFR1 (h) (P11362 22-822): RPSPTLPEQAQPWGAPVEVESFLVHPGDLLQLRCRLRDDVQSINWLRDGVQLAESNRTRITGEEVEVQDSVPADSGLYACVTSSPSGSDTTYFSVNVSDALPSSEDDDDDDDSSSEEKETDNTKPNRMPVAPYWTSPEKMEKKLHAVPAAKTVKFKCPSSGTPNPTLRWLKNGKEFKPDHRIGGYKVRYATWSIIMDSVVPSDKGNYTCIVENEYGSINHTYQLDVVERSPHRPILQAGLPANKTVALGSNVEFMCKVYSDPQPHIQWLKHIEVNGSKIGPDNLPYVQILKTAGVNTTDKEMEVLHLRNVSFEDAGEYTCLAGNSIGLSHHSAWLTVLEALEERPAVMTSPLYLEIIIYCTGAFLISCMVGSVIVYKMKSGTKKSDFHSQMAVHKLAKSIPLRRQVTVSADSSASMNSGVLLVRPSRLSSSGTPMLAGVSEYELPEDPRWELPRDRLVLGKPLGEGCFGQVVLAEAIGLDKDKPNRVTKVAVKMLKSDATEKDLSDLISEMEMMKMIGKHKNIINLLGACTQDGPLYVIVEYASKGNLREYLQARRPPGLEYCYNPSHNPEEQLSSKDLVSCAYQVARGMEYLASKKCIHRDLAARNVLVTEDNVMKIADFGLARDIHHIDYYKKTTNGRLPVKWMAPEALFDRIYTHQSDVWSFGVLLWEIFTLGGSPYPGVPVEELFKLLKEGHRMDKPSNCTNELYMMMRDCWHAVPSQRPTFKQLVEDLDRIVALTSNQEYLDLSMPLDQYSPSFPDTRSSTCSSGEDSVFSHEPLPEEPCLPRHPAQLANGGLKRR
Sequence of Ba/F3-FGFR3-transfected cells (P22607 whole entry, change not shown): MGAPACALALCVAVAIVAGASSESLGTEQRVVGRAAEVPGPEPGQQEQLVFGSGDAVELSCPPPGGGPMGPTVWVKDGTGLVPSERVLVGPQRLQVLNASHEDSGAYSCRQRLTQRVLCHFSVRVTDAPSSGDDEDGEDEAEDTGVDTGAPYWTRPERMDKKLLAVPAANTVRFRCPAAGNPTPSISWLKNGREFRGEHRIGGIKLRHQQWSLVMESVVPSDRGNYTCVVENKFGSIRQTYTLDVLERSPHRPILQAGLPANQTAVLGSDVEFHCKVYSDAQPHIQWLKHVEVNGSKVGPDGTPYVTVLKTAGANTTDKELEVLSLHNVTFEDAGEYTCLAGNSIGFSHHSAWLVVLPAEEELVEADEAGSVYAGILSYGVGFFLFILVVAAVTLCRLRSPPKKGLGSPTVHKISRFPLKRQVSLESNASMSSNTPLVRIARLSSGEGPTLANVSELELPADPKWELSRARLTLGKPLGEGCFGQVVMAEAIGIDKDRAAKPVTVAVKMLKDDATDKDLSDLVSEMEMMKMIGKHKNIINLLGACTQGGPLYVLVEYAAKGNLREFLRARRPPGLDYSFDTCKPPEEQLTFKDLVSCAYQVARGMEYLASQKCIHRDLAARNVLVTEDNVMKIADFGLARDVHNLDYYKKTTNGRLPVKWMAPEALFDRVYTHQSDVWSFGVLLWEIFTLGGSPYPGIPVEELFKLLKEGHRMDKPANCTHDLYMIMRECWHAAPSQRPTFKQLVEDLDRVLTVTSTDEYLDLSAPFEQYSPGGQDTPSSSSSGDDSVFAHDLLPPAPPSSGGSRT
Sequence of Ba/F3-FGFR4-transfected cells (P22455 whole entry, change not shown): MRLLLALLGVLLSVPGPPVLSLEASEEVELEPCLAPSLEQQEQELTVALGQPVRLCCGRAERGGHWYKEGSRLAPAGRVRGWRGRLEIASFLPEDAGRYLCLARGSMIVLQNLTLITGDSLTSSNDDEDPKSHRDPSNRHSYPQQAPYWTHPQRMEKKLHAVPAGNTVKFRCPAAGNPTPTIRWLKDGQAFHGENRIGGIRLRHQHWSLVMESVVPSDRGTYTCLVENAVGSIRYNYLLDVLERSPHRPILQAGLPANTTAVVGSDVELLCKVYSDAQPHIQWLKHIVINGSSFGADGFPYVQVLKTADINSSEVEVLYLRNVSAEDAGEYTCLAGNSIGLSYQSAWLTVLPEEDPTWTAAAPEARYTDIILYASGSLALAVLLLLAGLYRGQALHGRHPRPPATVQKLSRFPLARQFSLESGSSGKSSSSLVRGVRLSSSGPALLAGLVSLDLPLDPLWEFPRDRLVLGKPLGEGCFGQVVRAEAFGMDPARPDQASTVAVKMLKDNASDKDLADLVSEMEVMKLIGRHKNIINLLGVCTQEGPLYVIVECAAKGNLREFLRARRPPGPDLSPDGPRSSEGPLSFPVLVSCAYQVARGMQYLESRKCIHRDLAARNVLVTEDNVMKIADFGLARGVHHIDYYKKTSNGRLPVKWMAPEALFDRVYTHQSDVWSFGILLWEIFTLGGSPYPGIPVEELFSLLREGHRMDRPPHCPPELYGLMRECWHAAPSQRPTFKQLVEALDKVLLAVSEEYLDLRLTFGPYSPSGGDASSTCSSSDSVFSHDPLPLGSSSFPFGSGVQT
Sequence of Ba/F3-FGFR1-transfected cells (P11362 whole entry, change not shown): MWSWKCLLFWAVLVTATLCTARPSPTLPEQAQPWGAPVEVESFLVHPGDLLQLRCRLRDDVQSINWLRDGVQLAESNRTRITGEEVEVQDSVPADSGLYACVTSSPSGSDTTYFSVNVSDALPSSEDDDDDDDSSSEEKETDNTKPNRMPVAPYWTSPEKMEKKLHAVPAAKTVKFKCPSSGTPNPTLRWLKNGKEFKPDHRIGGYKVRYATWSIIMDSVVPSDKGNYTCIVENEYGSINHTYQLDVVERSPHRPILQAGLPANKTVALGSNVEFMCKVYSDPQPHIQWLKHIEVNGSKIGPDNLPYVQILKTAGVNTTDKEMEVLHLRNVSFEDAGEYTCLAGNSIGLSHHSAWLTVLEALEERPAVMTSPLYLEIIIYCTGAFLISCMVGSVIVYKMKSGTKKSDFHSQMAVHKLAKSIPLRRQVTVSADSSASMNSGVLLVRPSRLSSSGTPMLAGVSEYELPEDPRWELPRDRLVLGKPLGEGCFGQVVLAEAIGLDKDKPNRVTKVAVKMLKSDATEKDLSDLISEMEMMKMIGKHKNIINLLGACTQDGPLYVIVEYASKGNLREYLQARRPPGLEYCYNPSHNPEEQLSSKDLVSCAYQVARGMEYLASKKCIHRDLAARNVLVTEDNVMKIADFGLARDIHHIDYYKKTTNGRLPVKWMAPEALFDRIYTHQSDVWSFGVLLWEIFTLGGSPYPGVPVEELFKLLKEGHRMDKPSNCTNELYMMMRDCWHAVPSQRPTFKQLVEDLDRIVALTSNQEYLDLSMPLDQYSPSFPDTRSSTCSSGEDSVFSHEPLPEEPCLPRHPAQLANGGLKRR

Row | SMILES | IC50 [1] [nM] | BAF3-FGFR 1 (MIN IL3) 96 well pIC50 [2] | BAF3-FGFR 1 (MIN IL3) 384 well pIC50 [2] | melting point [°C] | IC50 ([3]; plus 10 ng/ml murine IL3) [µM] | BAF3-FGFR 3 (MIN IL3) 96 well pIC50 [4] | BAF3-FGFR 3 (MIN IL3) 384 well pIC50 [4] | BAF3-FGFR4 pIC50 [5] | IC50 ([3]; plus IL3, 96 well) [µM] | IC50 [6] [µM]
1 | COc1cc(OC)cc(N(CC2CC2)c2ccc3ncc(C(=O)NCc4ccc(F)cc4)nc3c2)c1 [Compound 101] | > 1000 | <5 | <5 | 140 | > 10 | <5 | <5 | <5 | – | –
2 | COc1cc(OC)cc(N(CC2CC2)c2ccc3ncc(-c4cccn4C)nc3c2)c1 [Compound 103] | > 1000 | <5 | <5 | 141 | > 10 | <5 | <5 | <5 | – | –
3 | COc1cc(OC)cc(N(CC2CC2)c2ccc3ncc(-c4nccn4C)nc3c2)c1 [Compound 60] | 575 | <5 | <5 | 175 | > 10 | <5 | <5 | <5 | – | –
4 | COc1cc(OC)cc(N(CC2CC2)c2ccc3ncc(-n4ccc(C)n4)nc3c2)c1 [Compound 31] | 933 | <5 | <5 | 107 | > 10 | <5 | <5 | <5 | – | –
5 | COc1cc(OC)cc(N(CC2CC2)c2ccc3ncc(Nc4nncs4)nc3c2)c1 [Compound 102] | > 1000 | <5 | <5 | 260 | > 10 | <5 | <5 | <5 | – | –
6 | COc1cc(OC)cc(N(CC2CC2)c2ccc3ncc(-c4cn(CCN5CCOCC5)nn4)nc3c2)c1 [Compound 24] | 20.4 | 5.42 | 5.39 | 128 | > 10 | 5.59 | ~5.7 | ~5.1 | – | –
7 | COc1cc(OC)cc(N(CC2CC2)c2ccc3ncc(-c4cn(C)cn4)nc3c2)c1 [Compound 21] | – | – | – | 136 | > 10 | – | – | – | – | –
8 | COc1cc(OC)cc(N(CC2CC2)c2ccc3ncc(-c4cc[nH]c4)nc3c2)c1 [Compound 36] | – | – | – | – | > 10 | – | – | – | – | –
9 | COc1cc(OC)cc(N(CC2CC2)c2ccc3ncc(C(=O)NCCN4CCOCC4)nc3c2)c1 [Compound 96] | ~363 | – | <5 | 112 | > 10 | 5.18 | <5 | <5 | – | –
10 | CCOC(=O)c1ncn(-c2cnc3ccc(N(CC4CC4)c4cc(OC)cc(OC)c4)cc3n2)c1C [Compound 65] | > 1000 | <5 | <5 | – | > 10 | 5.08 | <5 | <5 | – | –
11 | COc1cc(OC)cc(N(CC2CC2)c2ccc3ncc(-n4nccc4C)nc3c2)c1 [Compound 62] | > 1000 | <5 | <5 | 139 | > 10 | <5 | <5 | <5 | – | –
12 | COc1cc(OC)cc(N(CC2CC2)c2ccc3ncc(-c4ccn(C)c4)nc3c2)c1 [Compound 73] | – | – | – | 110 | > 10 | – | – | – | – | –
13 | COc1cc(OC)cc(N(CC2CC2)c2ccc3ncc(-c4ccc5c(ccn5C)c4)nc3c2)c1 [Compound 20] | – | – | – | – | – | – | – | – | > 10 | –
14 | COc1cc(OC)cc(N(CC2CC2)c2ccc3ncc(-c4cnnn4C)nc3c2)c1 [Compound 72] | 537 | 5.23 | 5.18 | 169 | > 10 | <5 | <5 | <5 | – | –
15 | COc1cc(OC)cc(N(CC2CC2)c2ccc3ncc(-c4nnn(C)n4)nc3c2)c1 [Compound 82] | 309 | 5.03 | <5 | 143 | > 10 | 5.18 | <5 | <5 | – | –
16 | COc1cc(OC)cc(N(CC2CC2)c2ccc3ncc(-c4nnn[nH]4)nc3c2)c1 [Compound 41] | 57.5 | <5 | <5 | 216 | > 10 | <5 | <5 | <5 | – | –
17 | COc1cc(OC)cc(N(CC2CC2)c2ccc3ncc(-n4ccnc4C)nc3c2)c1 [Compound 32] | 417 | <5 | <5 | – | > 10 | <5 | <5 | <5 | – | –
18 | COc1cc(OC)cc(N(CCO)c2ccc3ncc(-c4ccc(OC)nc4)nc3c2)c1 [Compound 111] | 26.3 | – | 5.65 | 195 | – | – | ~6.17 | 5.9 | – | > 10
19 | COc1cc(OC)cc(N(CCCO)c2ccc3ncc(-c4ccc(N5CCNCC5)nc4)nc3c2)c1 [Compound 48] | 2.45 | – | 6.92 | 184 | – | – | 6.87 | 6.5 | – | 5.5
20 | COc1cc(OC)cc(N(CC2CC2)c2ccc3ncc(-c4ccn[nH]4)nc3c2)c1 [Compound 58] | 135 | <5 | – | – | > 10 | 5.56 | – | <5 | – | –
21 | COc1cc(OC)cc(N(CCNC(C)C)c2ccc3ncc(-c4ccncc4)nc3c2)c1 [Compound 12] | 2.14 | – | 7.27 | 118 | – | – | ~7.03 | 6.8 | – | > 10
